The text below walks through data of PubChem BioAssay (NCI).

Among the test systems are HCC-2998 colon; ACHN renal; HL-60(TB) leukemia; BT-549 breast; SF-295 CNS; SF-539 CNS; OVCAR-3 ovarian; EKVX NSCLC; OVCAR-4 ovarian; HOP-62 NSCLC.
Assay in all cases: NCI-60 cell line screen, 48 h

Molecules are shown by their SMILES. “And” between values parts separate entries of the source, which are not always exact repeats. Identical values can stand only once.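 Five concentrations, 48 hours, 96-well plates. GI50 marks 50% less growth. TGI: total growth inhibition.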 Where only a bound is given, the exact number is not on record here.

Regarding `O=C(O)CC(O)(C(=O)O)C(O)C(=O)O` (configuration not stated), the TGI in the test with HCC-2998 colon, in the test on ACHN renal, in the test on HL-60(TB) leukemia, with BT-549 breast, in the test with SF-295 CNS and in the test on SF-539 CNS was more than 1000 µM throughout. Also, the TGI with OVCAR-3 ovarian, in the test with EKVX NSCLC, in the test on OVCAR-4 ovarian and in the test on HOP-62 NSCLC was more than 1000 µM each time.
Consider `CN(C)c1ccc(/C=c2/c3cc([N+](=O)[O-])ccc3n3c2cc(-c2ccccc2)[n+]3C)cc1`, for which the TGI amounted to 7.55 µM in the test on HCC-2998 colon; 19.6 µM with ACHN renal; 1.72 µM in the test on HL-60(TB) leukemia; 13 µM with BT-549 breast; 7.51 µM in the test on SF-295 CNS; 3.6 µM with SF-539 CNS. Besides, the TGI with OVCAR-3 ovarian is 5.48 µM; in the test with EKVX NSCLC, 7.81 µM; in the test on OVCAR-4 ovarian, 8.33 µM; in the test with HOP-62 NSCLC, 10.1 µM.
In the case of `OCC(O)C(O)C(O)C(O)/C=N/Nc1nc(O)c(/C=C2\C=Nc3ccccc32)[nH]1` (configuration not stated), the TGI with HCC-2998 colon, in the test with ACHN renal, in the test on HL-60(TB) leukemia, in the test with BT-549 breast, with SF-295 CNS and in the test with SF-539 CNS was more than 100 µM each time. Also, the TGI in the test on OVCAR-3 ovarian, in the test with EKVX NSCLC, in the test on OVCAR-4 ovarian and in the test on HOP-62 NSCLC was more than 100 µM each time.
Turning to `C=CCN1CCC2(CC1)NC(=O)c1ccccc1O2`, the TGI in the test with HCC-2998 colon, with ACHN renal, in the test on HL-60(TB) leukemia, with BT-549 breast, with SF-295 CNS and in the test on SF-539 CNS was more than 100 µM each time. Further, the TGI with OVCAR-3 ovarian, with EKVX NSCLC, in the test with OVCAR-4 ovarian and in the test on HOP-62 NSCLC was more than 100 µM in each case.
Consider `COc1ccccc1N=C1SCCN1C(=S)Nc1ccc(S(=O)(=O)/N=C/N(C)C)cc1`, for which the TGI was more than 100 µM with HCC-2998 colon; more than 100 µM in the test with ACHN renal; more than 100 µM with HL-60(TB) leukemia; 49.8 µM with BT-549 breast; more than 100 µM in the test on SF-295 CNS; more than 100 µM in the test on SF-539 CNS. For the same molecule, the TGI in the test on OVCAR-3 ovarian was more than 100 µM; in the test on EKVX NSCLC, 63.2 µM; in the test with OVCAR-4 ovarian, more than 100 µM; in the test on HOP-62 NSCLC, more than 100 µM.
As for `CC1=CC(=O)/C(=C/n2c(=S)[nH]c3ccccc32)C(=O)O1`, the TGI in the test with HCC-2998 colon, in the test on ACHN renal, with HL-60(TB) leukemia, with BT-549 breast, in the test on SF-295 CNS and with SF-539 CNS was more than 100 µM each time. Also, the TGI in the test with OVCAR-3 ovarian, in the test with EKVX NSCLC, in the test with OVCAR-4 ovarian and with HOP-62 NSCLC was more than 100 µM in each case.
Consider `COc1ccc2[nH]c(O)c(/C=c3/cc4c(c(-c5ccc(F)cc5)n3)=Nc3ccccc3-4)c2c1`, for which the GI50 in the test on HCC-2998 colon was 3.3 µM; with ACHN renal it was 10.3 µM; in the test on HL-60(TB) leukemia, 9.2 µM; in the test with BT-549 breast it was 1.8 µM; in the test on SF-295 CNS, 10.5 µM; in the test on SF-539 CNS, 7.62 µM. Also, the GI50 in the test with OVCAR-3 ovarian is 1.82 µM; in the test on EKVX NSCLC, 23.2 µM; in the test with OVCAR-4 ovarian, 1.8 µM; in the test with HOP-62 NSCLC, 1.88 µM. Also, the TGI with HCC-2998 colon is 12.6 µM; with ACHN renal it was 22.5 µM; with HL-60(TB) leukemia, more than 100 µM; in the test on BT-549 breast, 3.57 µM; in the test on SF-295 CNS, 31.2 µM; with SF-539 CNS, 20.6 µM. Moreover, the TGI with OVCAR-3 ovarian is 3.24 µM; in the test with EKVX NSCLC, more than 100 µM; in the test with OVCAR-4 ovarian it was 4.12 µM; in the test with HOP-62 NSCLC, 3.69 µM.
Regarding `CC(=O)C1(O)Cc2c(O)c3c(c(O)c2C(OC2CC(N)C(O)C(C)O2)C1)C(=O)c1ccccc1C3=O` (configuration not stated), the GI50 with HCC-2998 colon is 0.0198 µM; in the test with BT-549 breast, 0.0603 µM; with SF-539 CNS, 0.0116 µM; in the test with OVCAR-3 ovarian, 0.0375 µM; with EKVX NSCLC it was 0.0826 µM; in the test on OVCAR-4 ovarian it was 0.0663 µM. Moreover, the GI50 with HOP-62 NSCLC is less than 0.0126 µM. The TGI in the test on HCC-2998 colon was 0.257 µM and 0.0758 µM; in the test with ACHN renal it was 0.097 µM and 0.0268 µM; in the test with HL-60(TB) leukemia it was 0.0806 µM and < 0.0108 µM; in the test with BT-549 breast, 0.652 µM and 1.2 µM; in the test on SF-295 CNS, 0.388 µM and 0.0514 µM; in the test with SF-539 CNS it was 0.199 µM and 0.0511 µM. The TGI in the test with OVCAR-3 ovarian was 0.987 µM and 0.475 µM; in the test with EKVX NSCLC, 0.811 µM; with OVCAR-4 ovarian it was 0.996 µM; in the test on HOP-62 NSCLC, 0.275 µM and 0.118 µM.
Turning to `Nc1ccc(-c2nc3ccccc3s2)cc1Br`, the TGI is more than 100 µM with HCC-2998 colon; more than 100 µM in the test on ACHN renal; more than 100 µM in the test on HL-60(TB) leukemia; more than 100 µM with BT-549 breast; more than 100 µM in the test on SF-295 CNS; more than 78.9 µM in the test with SF-539 CNS. For the same molecule, the TGI with OVCAR-3 ovarian is more than 100 µM; in the test with EKVX NSCLC, more than 100 µM; in the test on OVCAR-4 ovarian it was more than 100 µM; in the test with HOP-62 NSCLC, more than 68.3 µM.
As to `COc1cc(C=O)cc(C=Nc2ccc(S(N)(=O)=O)cc2)c1O`, the TGI with HCC-2998 colon was 42.7 µM; with ACHN renal it was 35.2 µM; with HL-60(TB) leukemia, 75.1 µM; with BT-549 breast, more than 100 µM; in the test on SF-295 CNS, 23.2 µM; in the test on SF-539 CNS, 7.94 µM. Further, the TGI is more than 100 µM in the test with OVCAR-3 ovarian, more than 100 µM in the test on EKVX NSCLC, more than 100 µM with OVCAR-4 ovarian and 48.5 µM in the test with HOP-62 NSCLC.
